From patent US20120010177A1, “MicroRNA Modulators and Method for Identifying And Using The Same” (The Wistar Institute / North Carolina State University, priority 2008, published 2012)
Where two headings read alike, the source gives them in different places.

Experiments:
miR-21 = miR-21 luciferase reporter (Luc-miR-21) screening assay in HeLa cells; type: cell-based, human; settings: HeLa Luc-miR-21 reporter; for increase of the luciferase signal: 48 hours, compared to untreated cells
Excerpt: (§1) MicroRNA miR-21 was selected as a target miRNA due to its involvement as an anti-apoptotic factor in cancer cells and its elevated levels in various cancers such as breast, ovarian, and lung cancer as well as glioblastoma (Chan, et al. (2005) Cancer Res. 65:6029). Lentiviral reporter constructs for miRNA activity were assembled by introducing the complementary sequences of mature miR-21 (5′-UAGCUUAUCAGACUGAUGUUGA-3′; SEQ ID NO:13), miR-30A (5′-CUUUCAGUCGGAUGUUUGCAGC-3′; SEQ ID NO:14) as a specificity control, and a linker sequence (a previously present multiple-cloning site with no detectable recognition by natural miRNAs) downstream of a luciferase reporter gene as a negative control (FIG. 1).
(§2) Luc-miR-21, Luc-miR-30A, and Luc-linker (control) were, by viral infection, introduced into HeLa cells, which express high levels of miR-21, but only low levels of miR-30A (Cheng, et al. (2005) Nucl. Acids Res. 33:1290).
To illustrate the method of the present invention, a primary screen of >1000 compounds was conducted. The library was composed of a collection of novel compounds and the Library of Pharmacologically Active Compounds (LOPAC library, Sigma-Aldrich, St Louis, Mo.). All compounds were stored at a 10 mM concentration in DMSO to keep the DMSO concentration in the actual screen at 0.1% thereby minimizing toxicity. HeLa cells stably expressing the miR-reporter were treated with DMSO ranging from 0.1-1%. Luciferase signals were determined 48 hours after the treatment.
HeLa cells (2500 cells) were plated in each well of 384-well plate 24 hour before the addition of compounds. Compounds at 10 μM final concentration were added to each well. Luciferase signal were determined 48 hours after compound treatment. Using this screening assay, compound 1 was identified as a miR-21 antagonist.

Luc-Linker control = test: Luc-linker control luciferase reporter in HeLa cells; type: cell-based, human; settings: 10 μM, relative to DMSO control
Excerpt: as §1, §2
(§3) It was subsequently determined whether Compound 2 was a specific inhibitor of miR-21 or whether it could interfere with the general miRNA biogenesis pathway. Thus, HeLa cells stably expressing both the miR-30 luciferase reporter construct and miR-30 were treated with Compound 2.

miR-30 = miR-30 luciferase reporter in HeLa cells stably expressing miR-30; type: cell-based, human; settings: HeLa cells stably expressing miR-30 reporter and miR-30, 10 μM
Excerpt: as §1
The specificity of the reporter system was tested by assaying cells which contained both the Luc-miR-30A reporter and a construct expressing exogenous miR-30.
as §3

mature miR-21 = test: Quantitative RT-PCR of mature miR-21; type: cell-based, human; settings: for miR-21 RT PCR* (% Decrease as compared to DMSO control): Table 2; for mature miR-21 expression: HCT116 colon cancer cells and A172 glioblastoma cells, FIG. 6B
Excerpt: (§4) UNG (Applied Biosystems). […] (Sigma).

mature miR-30 = test: Quantitative RT-PCR of mature miR-30; type: cell-based, human; settings: for mature miR-30 level (% of DMSO control): Table 2
Excerpt: as §4

mature miR-93 = test: Quantitative RT-PCR of mature miR-93; type: cell-based, human; settings: for mature miR-93 level, % of DMSO control: Table 2
Excerpt: as §4

[1] = test system: primary miR-21 (pri-miR-21); test: Quantitative RT-PCR of primary miR-21; type: cell-based, human; settings: for primary miR-21 expression: HCT116 colon cancer cells and A172 glioblastoma cells, FIG. 6A
Excerpt: as §4

[2] = test system: HEK293T (human embryonic kidney) cells; test: Cell viability assay, HEK293T cells; type: cell-based; settings: 10 μM Compound
Excerpt: (§5) In these assays, A172 cells (glioblastoma cells) were contacted with a miR-21 inhibitor either alone or in combination with a conventional antiproliferative agent (i.e., 5-fluorouracil or curcumin). At the concentrations indicated, no toxic effects on HEK293T (human embryonic kidney) cells were observed.

[3] = test system: A172 cells (glioblastoma cells); test: Cell viability assay, A172 cells, alone or with antiproliferative agent; type: cell-based; settings: Homo sapiens, A 172
Excerpt: as §5

[4] = test system: HCT116 colon cancer cells; test: Cell proliferation of HCT116 cells, drug combinations; type: cell-based, human
Excerpt: The % activity indicates % live cell activity.

[5] = MDA-MB-231, MCF-7 and A172 cell lines
[6] = HeLa cells, 10 μM, relative to DMSO
[7] = 10 μM Compound + 5FU 0.5 μM, read-out: Cell Viability A172 Cells, Compound + 5FU (0.5 μM)
[8] = 10 μM Compound + Curcumin 10 μM, read-out: Cell Viability A172 Cells, Compound + Curcumin (10 μM)
[9] = 10 μM Compound alone, read-out: Cell Viability A172 Cells, Compound

SMILES | increase of the luciferase signal (miR-21; 10 μM) [%] | miR-21 RT PCR* (% Decrease as compared to DMSO control) (mature miR-21) [%] | mature miR-30 level (% of DMSO control) (mature miR-30) [%] | mature miR-93 level, % of DMSO control (mature miR-93) [%] | Cell Viability HEK293T Cells [2] [%] | viability at 10 µM [3, 7] [%] | viability at 10 µM [3, 8] [%] | viability at 10 µM [3, 9] [%] | mature miR-21 expression (mature miR-21) | primary miR-21 expression [1] | also measured
Nc1ccc(/N=N/c2ccc([N+](=O)[O-])cc2)cc1 [Compound 1] | 251 |  |  |  |  |  |  |  |  |  | 
C#CCNC(=O)c1ccc(/N=N/c2ccccc2)cc1 [Compound 2, (E)-4-(Phenyldiazenyl)-N-(prop-2-ynyl)benzamide] | 485 | 22 | 110 | 115 | 98 | 8 | 12 | 84 |  |  | fold increase of the luciferase signal (miR-21; 10 μM): 5 fold; EC50 (miR-21; Homo sapiens, concentration dependent, read-out: EC50 of increase of luciferase signal): 2000 nM; luciferase signal in HeLa cells expressing the Luc-Linker control (Luc-Linker control): did not affect the luciferase signal; luciferase signal of miR-30 luciferase reporter (miR-30): no increase of the luciferase signal was detected; mature miR-21 level (mature miR-21; [5]): suppressed; level of exogenous mature miR-30 (mature miR-30; [6]): not reduced; mature miR-30 level (mature miR-30; [5]): no effect; level of endogenous mature miR-93 (mature miR-93; [6]): not reduced; mature miR-93 level (mature miR-93; [5]): no effect; reduction of primary miR-21 (pri-miR-21) level ([1]; HeLa cells, 10 μM, compared to DMSO control): 87%; primary miR-21 level [1, 5]: suppressed; proliferation of HCT116 colon cancer cells, combination with 5-FU ([4]; FIG. 5A): synergistically decrease; proliferation of HCT116 colon cancer cells, combination with Curcumin ([4]; FIG. 5B): synergistically decrease
Cn1c2c(c3ccccc3c1=O)C(=O)c1cc3c(cc1-2)OCO3 [Compound 4] |  | 12 | 136 | 116 | 98 | 62 | 54 | 66 |  |  | 
O=c1[nH]cc(F)c(=O)[nH]1 [Compound 5-FU, 5-fluorouracil, reference compound] |  |  |  |  |  |  |  |  | increased | increased | 
COc1ccc2c(c1[N+](=O)[O-])CCC1C2CC[C@]2(C)C(=O)CCC12 (stereo partly shown) [Compound 6] |  | 34 | 73 | 83 | 97 | 47 | 39 | 71 |  |  | 
COc1cc(/C=C/C(=O)CC(=O)/C=C/c2ccc(O)c(OC)c2)ccc1O [Curcumin, curcumin, reference compound] |  |  |  |  |  |  |  |  | increased | increased | 
